Measurements taken from US7615361B2, “Toxicity screening methods” (Ceetox, Inc., priority 2006, dated 2009).
Where two headings read alike, the source gives them in different places.

Experiments:
SK-MEL28 cells = assay: Membrane lipid peroxidation (8-isoprostane ELISA)
Protocol: Lipid Peroxidation Measured as 8-Isoprostane (8-ISO): 8-ISO levels were determined using an ELISA. 8-ISO is a member of a family of eicosanoids produced non-enzymatically by random oxidation of tissue phospholipids by oxygen radicals. Therefore, an increase in 8-ISO is an indirect measure of increased lipid peroxidation (Vacchiano and Tempel, 1994). At the end of the exposure period, plates were either analyzed immediately or stored at −80° C. until needed for analysis. Color development, which is […] to the amount of 8-ISO present in the sample, was read on a Packard Fusion or equivalent plate reader at 415 nm.
Lipid Peroxidation Measured as 8-Isoprostane (8-ISO): Background absorbance produced from Ellman's reagent is subtracted from all wells. Non-specific binding is subtracted from the maximum binding wells to give a corrected maximum binding expressed as Bo. The percent of bound (B) relative to maximum binding capacity (Bo) for all unknown samples and for standards was determined an expressed as (% B/Bo). The % B/Bo for standards was plotted against the log of 8-ISO added to yield the final standard curve. This curve was used to convert % B/Bo to pg 8-ISO/mL of sample.
The test compound consisted of two parts mixed in a constant ratio of 5:1. The final test mixture consisted of Test mix 1 and Test mix 2, which were received as frozen solutions. The test mixture was tested in a ratio of 5:1 COMP A in five different cell types which included the following: SK-MEL28, human hepatocytes, HUVEC, C32, and NHEM cells. Cells were seeded into 96-well plates and cultured in medium containing 10% bovine serum. […]
Experimental Protocol: The test compounds were shipped on dry ice for testing. The compounds were stored frozen at −80° C. until needed. Dosing solutions were prepared in complete culture medium. SK-MEL28, human hepatocytes, HUVEC, C32, and NHEM cells were used as the test systems. Cells were seeded into 96-well plates and allowed to equilibrate for approximately 48 hr. Following the equilibration period the cells were exposed to the test compound mix at concentrations of COMP A (μg/mL)=(250:50), (125:25), (25:12.5), (12.5:2.5), (2.5:1.25), (1.25:0.25), and (0.25:0.05). […] Following the exposure period, the cells or their supernatant (culture medium) were analyzed for changes in cell proliferation, membrane leakage, mitochondrial function, oxidative stress, and apoptosis. The resultant exposure concentration response curves were graphed and analyzed for determining the concentration that produced a half maximal response or TC50.

Intracellular ATP levels [1] = format: cell-based; conditions: read-out: ATP TC50; for CC50 at 72 h: SK-MEL28, 72 HR, run #2
Protocol: (§1) Intracellular ATP Levels: Cellular Adenosine triphosphate (ATP) was determined with an assay based on a reaction between ATP+D-luciferin+oxygen catalyzed by luciferase to yield Oxyluciferin+AMP+PPi+CO2+light. The emitted light is proportional to the amount of ATP present. […] In addition, a unique cell lysis reagent inhibits endogenous ATPases and therefore stabilizes cellular ATP by preventing its degradation to ADP. ATP is present in all-living cells and declines rapidly upon cell death. In addition, this assay in combination with the MTT assay provides an indicator of mitochondrial activity and energy status of the cell.
(§2) Plates were analyzed immediately or stored at −20° C. until needed. On the day of analysis, the plates were thawed and calibration curve prepared with ATP in the same liquid matrix as samples. ATP was quantified by adding ATP substrate solution and then reading luminescence on a Packard Fusion Luminescence or equivalent plate reader.
(§3) Intracellular ATP Levels: ATP levels in treated cells could be determined by using the regression coefficients obtained from the linear regression analysis of the calibration curve. Thus, values could be expressed as pmoles ATP/million cells. Background corrected luminescence was used to determine percent change relative to controls by dividing treated values by control values and multiplying by 100.
Dosing solutions were prepared in complete culture medium.

Intracellular ATP levels [2] = format: cell-based; conditions: rat, NRK cells, read-out: ATP TC50
Protocol: as §1, §2, §3
The third experiment was done to evaluate the specificity and selectivity of the test compound in another non-tumor cell that was derived from normal rat kidney tissue. In this experiment the test compound has no effect on cell number of acute cell death up to the 500 dilution after 6 and 24 hr of exposure (FIG. 76C and 77C). Significant effects were observed on mitochondrial markers at dilutions that dropped pH to 3.7. The bar graph in FIG. 82 summarizes these effects. […] In contrast the rat tumor cell line was sensitive to the test compound and cell death occurred at the 500 dilution and could not be attributed to low pH.

P-glycoprotein (PgP) = P-glycoprotein (PgP) (Homo sapiens, UniProt P08183); assay: P-glycoprotein (PgP) binding: MTT with and without cyclosporin A, human hepatocytes; format: cell-based; set-up: SK-MEL28, human hepatocytes, HUVEC, C32, and NHEM cells were used as the test systems; endogenous in cells; conditions: for % Control (Compound + CSA) / % Control (Compound): human hepatocytes 24 HR, MTT; for % Control (Compound + CSA): with cyclosporin A; for % Control (Compound): without CSA; for % Difference: human hepatocytes, 24 HR
Chain of P-glycoprotein (PgP) (P08183 whole entry): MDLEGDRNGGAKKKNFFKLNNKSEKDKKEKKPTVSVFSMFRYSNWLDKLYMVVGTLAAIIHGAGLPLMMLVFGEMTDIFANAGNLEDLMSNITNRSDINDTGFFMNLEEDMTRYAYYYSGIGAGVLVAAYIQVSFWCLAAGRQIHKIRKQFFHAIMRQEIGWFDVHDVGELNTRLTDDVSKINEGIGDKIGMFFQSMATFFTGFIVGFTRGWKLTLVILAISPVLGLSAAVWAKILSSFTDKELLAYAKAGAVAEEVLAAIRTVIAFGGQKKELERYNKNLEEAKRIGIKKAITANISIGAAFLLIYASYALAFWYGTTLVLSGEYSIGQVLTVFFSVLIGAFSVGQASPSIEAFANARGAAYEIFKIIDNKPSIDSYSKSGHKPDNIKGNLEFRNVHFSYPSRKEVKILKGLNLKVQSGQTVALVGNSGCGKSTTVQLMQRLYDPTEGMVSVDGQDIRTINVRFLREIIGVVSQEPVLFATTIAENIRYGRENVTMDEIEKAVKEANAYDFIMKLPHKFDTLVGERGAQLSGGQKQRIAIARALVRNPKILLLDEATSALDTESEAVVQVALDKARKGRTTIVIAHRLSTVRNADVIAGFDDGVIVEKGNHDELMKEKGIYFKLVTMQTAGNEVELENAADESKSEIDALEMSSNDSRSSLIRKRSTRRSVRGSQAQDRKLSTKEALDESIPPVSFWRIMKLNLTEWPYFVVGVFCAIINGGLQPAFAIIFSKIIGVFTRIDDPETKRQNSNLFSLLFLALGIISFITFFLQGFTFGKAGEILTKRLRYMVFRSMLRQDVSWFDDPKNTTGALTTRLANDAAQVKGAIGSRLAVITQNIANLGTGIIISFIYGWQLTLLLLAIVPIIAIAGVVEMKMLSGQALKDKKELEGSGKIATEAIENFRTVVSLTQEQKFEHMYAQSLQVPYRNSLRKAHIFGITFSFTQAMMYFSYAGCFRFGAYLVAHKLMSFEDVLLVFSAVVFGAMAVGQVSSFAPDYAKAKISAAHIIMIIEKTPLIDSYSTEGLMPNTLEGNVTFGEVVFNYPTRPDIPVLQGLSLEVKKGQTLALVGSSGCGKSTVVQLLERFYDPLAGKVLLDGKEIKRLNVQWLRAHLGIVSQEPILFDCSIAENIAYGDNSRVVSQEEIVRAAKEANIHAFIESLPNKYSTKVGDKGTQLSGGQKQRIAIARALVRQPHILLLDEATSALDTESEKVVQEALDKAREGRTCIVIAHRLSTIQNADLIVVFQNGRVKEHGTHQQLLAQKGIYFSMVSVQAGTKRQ
Protocol: P-glycoprotein (PgP) transport proteins are expressed in the bile canalicular membrane of normal liver. However, in neoplastic cells it is not uncommon to have expression of this transporter system in the plasma membrane. The H4IIE cells have a very active efflux pump activity in the plasma membrane. As a result, compounds that are substrates for this transporter may not accumulate inside the cell. The existence of these transporters was evaluated with the Calcein-AM assay and with known substrates of PgP. […] Therefore, compounds that show negative toxicity should be evaluated as potential substrates of PgP and compared to data shown in the PgP table of this example.
The cell supernatant or the cells themselves were harvested for biochemical analysis. General cytotoxicity was evaluated by monitoring membrane integrity, mitochondrial function, cell proliferation, oxidative stress, and apoptosis. In addition to monitoring biochemical changes essential for cell health, interaction with P-glycoprotein (PgP) and solubility were also assessed. The means of each exposure group (n=3-7) were calculated for each assay performed. Intra assay variation well to well was typically less than 10% with plate to plate variation typically less than 20%.

[3] = SK-MEL28, 24 HR, COMP A (LOW) / controls #2
[4] = SK-MEL28, 72 HR, COMP A (LOW) / controls #2

Compound	Membrane Lipid Peroxidation (SK-MEL28 cells; SK-MEL28, 24 HR)	Membrane Lipid Peroxidation (SK-MEL28 cells; [3])	Membrane Lipid Peroxidation (SK-MEL28 cells; [4])	CC50 at 24 h (Intracellular ATP levels [1]; human hepatocytes) [µM]	CC50 at 72 h (Intracellular ATP levels [1]; human, SK-MEL28 cells) [µM]	CC50 at 6 h (Intracellular ATP levels [2]) [µM]	CC50 at 24 h (Intracellular ATP levels [2]) [µM]	% Control (Compound + CSA) (P-glycoprotein (PgP)) [%]	% Control (Compound) (P-glycoprotein (PgP)) [%]	% Difference (P-glycoprotein (PgP)) [%]	CC50 at 24 h (Intracellular ATP levels [1]; human, HUVEC) [µM]	CC50 at 24 h (Intracellular ATP levels [1]; human, SK-MEL28 cells, SK-MEL28, 24 HR) [µM]
C=C(C)[C@H]1Cc2c(ccc3c2O[C@@H]2COc4cc(OC)c(OC)cc4[C@@H]2C3=O)O1 [ROTENONE, Rotenone]	3 (3 = Concentration related increase with a maximum value ≧30 pg/mL)	2 (2 = Concentration related increase with maximum values ≧15 pg/mL)	3 (3 = Concentration related increase with a maximum value ≧30 pg/mL)	6	2	10	10	60.9	97.1	37.2		
CC[C@@]1(O)C(=O)OCc2c1cc1n(c2=O)Cc2cc3ccccc3nc2-1 [CAMPTOTHECIN, Camptothecin]	0	0	1 (1 = Modest increase with maximum values ≦15 pg/mL)		0.1	300	9	65.8	88.5	25.7	40	293
